Species: Rattus norvegicus
Assay: Open TG-GATES - Regimen: Single
Type: toxicity, organism-based, Sprague-Dawley
Set-up: regimen Single, gender Male, age 6 weeks
Conditions: in vivo, po, route gavage; for gamma-GTP / ALP / ALT / AST / BUN / CRE / Ca / Cl / DBIL / GLC / IP / K / LDH / Na / PL / RALB / TBIL / TC / TG / TP: tissue Plasma; for APTT / Bas / Eos / Fbg / Hb / Ht / Lym / MCH / MCHC / Mono / Neu / Plat / RBC / Ret / WBC: tissue Blood; for KIDNEY_L / KIDNEY_R / KIDNEY_TOTAL: tissue Kidney; for LIVER: tissue Liver

## O=C(CCCN1CCC(O)(c2ccc(Cl)cc2)CC1)c1ccc(F)cc1 [HALOPERIDOL]
0 mg/kg, 24 h, dose level Control
  gamma-GTP: 1 IU/L
3 mg/kg, 3 h, dose level Low
  TERMINAL_BW: 203.1 g
  APTT: 16.9 s
  Bas: 0%
  Eos: 0.8%
  Fbg: 205.8 mg/dL
  Hb: 13.5 g/dL
  Ht: 40.4%
  Lym: 70.4%
  MCH: 21.8 pg
  MCHC: 33.5%
  Mono: 8.2%
  Neu: 20.6%
  Plat: 101.1 x10_4/uL
  RBC: 620.8 x10_4/ul
  Ret: 8.3%
  WBC: 102.1 x10_2/uL
  KIDNEY_L: 0.9 g
  KIDNEY_R: 0.9 g
  KIDNEY_TOTAL: 1.8 g
  LIVER: 9.6 g
  ALP: 1074.8 IU/L
  ALT: 42.2 IU/L
  AST: 61.2 IU/L
  BUN: 12.6 mg/dL
  CRE: 0.5 mg/dL
  Ca: 11.1 mg/dL
  Cl: 105.2 meq/L
  DBIL: 0.028 mg/dL
  GLC: 202.8 mg/dL
  IP: 10.4 mg/dL
  K: 4.7 meq/L
  LDH: 92.6 IU/L
  Na: 139.4 meq/L
  PL: 141.2 mg/dL
  RALB: 3.6 g/dL
  TBIL: 0.3 mg/dL
  TC: 78.6 mg/dL
  TG: 41.6 mg/dL
  TP: 5.7 g/dL
  gamma-GTP: 1.4 IU/L
3 mg/kg, 6 h, dose level Low
  TERMINAL_BW: 200.5 g
  APTT: 16.6 s
  Bas: 0%
  Eos: 0.6%
  Fbg: 205.2 mg/dL
  Hb: 13.5 g/dL
  Ht: 40.5%
  Lym: 77%
  MCH: 21.7 pg
  MCHC: 33.3%
  Mono: 7.2%
  Neu: 15.2%
  Plat: 103.7 x10_4/uL
  RBC: 619.8 x10_4/ul
  Ret: 8.8%
  WBC: 90.9 x10_2/uL
  KIDNEY_L: 0.9 g
  KIDNEY_R: 0.9 g
  KIDNEY_TOTAL: 1.9 g
  LIVER: 9 g
  ALP: 897.8 IU/L
  ALT: 34.4 IU/L
  AST: 57.2 IU/L
  BUN: 9.6 mg/dL
  CRE: 0.4 mg/dL
  Ca: 10.6 mg/dL
  Cl: 105.8 meq/L
  DBIL: 0.034 mg/dL
  GLC: 184.4 mg/dL
  IP: 10.6 mg/dL
  K: 4.9 meq/L
  LDH: 81.6 IU/L
  Na: 139.2 meq/L
  PL: 142 mg/dL
  RALB: 3.6 g/dL
  TBIL: 0.3 mg/dL
  TC: 84.4 mg/dL
  TG: 32.4 mg/dL
  TP: 5.4 g/dL
  gamma-GTP: 1.6 IU/L
3 mg/kg, 9 h, dose level Low
  TERMINAL_BW: 199.3 g
  APTT: 16.8 s
  Bas: 0%
  Eos: 0.6%
  Fbg: 204.8 mg/dL
  Hb: 13.6 g/dL
  Ht: 40.5%
  Lym: 70.4%
  MCH: 22 pg
  MCHC: 33.6%
  Mono: 9.6%
  Neu: 19.4%
  Plat: 102.7 x10_4/uL
  RBC: 621.4 x10_4/ul
  Ret: 9.5%
  WBC: 60.9 x10_2/uL
  KIDNEY_L: 0.9 g
  KIDNEY_R: 1 g
  KIDNEY_TOTAL: 1.9 g
  LIVER: 8.5 g
  ALP: 810.6 IU/L
  ALT: 28.4 IU/L
  AST: 56.6 IU/L
  BUN: 10.2 mg/dL
  CRE: 0.5 mg/dL
  Ca: 10.2 mg/dL
  Cl: 106.6 meq/L
  DBIL: 0.018 mg/dL
  GLC: 183.4 mg/dL
  IP: 10.6 mg/dL
  K: 4.6 meq/L
  LDH: 84 IU/L
  Na: 139.2 meq/L
  PL: 126.6 mg/dL
  RALB: 3.6 g/dL
  TBIL: 0.4 mg/dL
  TC: 71 mg/dL
  TG: 31.2 mg/dL
  TP: 5.5 g/dL
  gamma-GTP: 1.8 IU/L
3 mg/kg, 24 h, dose level Low
  TERMINAL_BW: 213.8 g
  APTT: 15.9 s
  Bas: 0%
  Eos: 1.2%
  Fbg: 198.8 mg/dL
  Hb: 13.6 g/dL
  Ht: 40.8%
  Lym: 75.6%
  MCH: 22.6 pg
  MCHC: 33.3%
  Mono: 6%
  Neu: 17.2%
  Plat: 105.6 x10_4/uL
  RBC: 601 x10_4/ul
  Ret: 9.4%
  WBC: 75.9 x10_2/uL
  KIDNEY_L: 1 g
  KIDNEY_R: 1 g
  KIDNEY_TOTAL: 1.9 g
  LIVER: 11.3 g
  ALP: 957.8 IU/L
  ALT: 35 IU/L
  AST: 59.2 IU/L
  BUN: 21.2 mg/dL
  CRE: 0.6 mg/dL
  Ca: 11.3 mg/dL
  Cl: 105.4 meq/L
  DBIL: 0.026 mg/dL
  GLC: 180.8 mg/dL
  IP: 7.9 mg/dL
  K: 5 meq/L
  LDH: 104.8 IU/L
  Na: 139.2 meq/L
  PL: 156.6 mg/dL
  RALB: 3.8 g/dL
  TBIL: 0.4 mg/dL
  TC: 80.6 mg/dL
  TG: 102.4 mg/dL
  TP: 5.9 g/dL
